Values after ≈ are worked out from the molar mass of the structure shown. Active and inactive are the calls of the source. The rule behind the calls is not given here.
What was measured:
Micrococcus luteus [1] = assay: Antibacterial activity against Micrococcus luteus MTCC 106 measured after 24 hrs by NCCL protocol based broth dilution method; assay type: functional
Staphylococcus aureus [2] = assay: Antibacterial activity against Staphylococcus aureus MTCC 3160 measured after 24 hrs by NCCL protocol based broth dilution method; assay type: functional
Aspergillus fumigatus [3] = assay: Antifungal activity against Aspergillus fumigatus MTCC 343 measured after 48 hrs by NCCL protocol based broth dilution method; assay type: functional
Staphylococcus aureus [4] = assay: Antibacterial activity against Staphylococcus aureus MTCC 3160 assessed as zone of inhibition at 100 ug/well measured after 24 hrs by agar well diffusion method; assay type: functional; conditions: MTCC 3160, 24 h, read-out: DIZ
Streptococcus mutans [5] = assay: Antibacterial activity against Streptococcus mutans MTCC 497 assessed as zone of inhibition at 100 ug/well measured after 24 hrs by agar well diffusion method; assay type: functional; conditions: MTCC 497, 24 h, read-out: DIZ
Salmonella paratyphi [6] = assay: Antibacterial activity against Salmonella paratyphi assessed as zone of inhibition at 100 ug/well measured after 24 hrs by agar well diffusion method; assay type: functional, Salmonella enterica subsp. enterica serovar Paratyphi A; conditions: Salmonella enterica, read-out: DIZ
Salmonella paratyphi [7] = assay: Antibacterial activity against Salmonella paratyphi measured after 24 hrs by NCCL protocol based broth dilution method; assay type: functional, Salmonella enterica subsp. enterica serovar Paratyphi A
Candida albicans [8] = assay: Antifungal activity against Candida albicans MTCC 3017 measured after 48 hrs by NCCL protocol based broth dilution method; assay type: functional
Candida albicans [9] = assay: Antifungal activity against Candida albicans MTCC 3017 assessed as zone of inhibition at 100 ug/well measured after 48 hrs by agar well diffusion method; assay type: functional; conditions: MTCC 3017, 48 h, read-out: DIZ
Klebsiella pneumoniae [10] = assay: Antibacterial activity against Klebsiella pneumoniae MTCC 3384 measured after 24 hrs by NCCL protocol based broth dilution method; assay type: functional
Klebsiella pneumoniae [11] = assay: Antibacterial activity against Klebsiella pneumoniae MTCC 3384 assessed as zone of inhibition at 100 ug/well measured after 24 hrs by agar well diffusion method; assay type: functional; conditions: MTCC 3384, 24 h, read-out: DIZ
Micrococcus luteus [12] = assay: Antibacterial activity against Micrococcus luteus MTCC 106 assessed as zone of inhibition at 100 ug/well measured after 24 hrs by agar well diffusion method; assay type: functional; conditions: MTCC 106, 24 h, read-out: DIZ
Salmonella typhi [13] = assay: Antibacterial activity against Salmonella typhi measured after 24 hrs by NCCL protocol based broth dilution method; assay type: functional, Salmonella enterica subsp. enterica serovar Typhi
Salmonella typhi [14] = assay: Antibacterial activity against Salmonella typhi assessed as zone of inhibition at 100 ug/well measured after 24 hrs by agar well diffusion method; assay type: functional, Salmonella enterica subsp. enterica serovar Typhi; conditions: Salmonella enterica, read-out: DIZ
Aspergillus fumigatus [15] = assay: Antifungal activity against Aspergillus fumigatus MTCC 343 assessed as zone of inhibition at 100 ug/well measured after 48 hrs by agar well diffusion method; assay type: functional; conditions: MTCC 343, 48 h, read-out: DIZ
Streptococcus mutans [16] = assay: Antibacterial activity against Streptococcus mutans MTCC 497 measured after 24 hrs by NCCL protocol based broth dilution method; assay type: functional
[17] = Salmonella enterica subsp. enterica serovar Paratyphi A
[18] = Salmonella enterica subsp. enterica serovar Typhi

Row | Structure (SMILES) | MIC (Micrococcus luteus [1]; MTCC 106, 24 h) [µg/mL] | MIC (Staphylococcus aureus [2]; MTCC 3160, 24 h) [µg/mL] | MIC (Aspergillus fumigatus [3]; MTCC 343, 48 h) [µg/mL] | zone of inhibition at 100 µg/disc (Staphylococcus aureus [4]) [mm] | zone of inhibition at 100 µg/disc (Streptococcus mutans [5]) [mm] | zone of inhibition at 100 µg/disc (Salmonella paratyphi [6]) [mm] | MIC (Salmonella paratyphi [7]; Salmonella enterica) [µg/mL] | MIC (Candida albicans [8]; MTCC 3017, 48 h) [µg/mL] | zone of inhibition at 100 µg/disc (Candida albicans [9]) [mm] | MIC (Klebsiella pneumoniae [10]; MTCC 3384, 24 h) [µg/mL] | zone of inhibition at 100 µg/disc (Klebsiella pneumoniae [11]) [mm] | zone of inhibition at 100 µg/disc (Micrococcus luteus [12]) [mm] | MIC (Salmonella typhi [13]; Salmonella enterica) [µg/mL] | zone of inhibition at 100 µg/disc (Salmonella typhi [14]) [mm] | zone of inhibition at 100 µg/disc (Aspergillus fumigatus [15]) [mm] | MIC (Streptococcus mutans [16]; MTCC 497, 24 h) [µg/mL] | further results
1 | O=[N+]([O-])c1ccc(O)c(/C=N/c2cccc(B(O)O)c2)c1 | 250 (≈ 874 µM) | 500 (≈ 1750 µM) | 500 (≈ 1750 µM) | 8 | 9 | 0 | 500 (≈ 1750 µM) | 500 (≈ 1750 µM) | 0 | 500 (≈ 1750 µM) | 0 | 0 | 500 (≈ 1750 µM) | 11 | 0 | 125 (≈ 437 µM) | 
2 | CC1(C)O[C@H]2O[C@@H]3COB(c4cccc(/N=C/c5ccc(Br)cc5O)c4)O[C@@H]3[C@H]2O1 | 62.5 (≈ 132 µM) | 250 (≈ 527 µM) | 500 (≈ 1050 µM) | 13 | 17 | 14 | 250 (≈ 527 µM) | 125 (≈ 264 µM) | 17 | 125 (≈ 264 µM) | 12 | 21 | 31.2 (≈ 65.9 µM) | 24 | 0 | 125 (≈ 264 µM) | 
3 | CC1(C)O[C@H]2O[C@@H]3COC(c4cccc(/C=N/c5ccc(F)cc5)c4)O[C@@H]3[C@H]2O1 (stereo partly drawn) | 500 (≈ 1250 µM) | 500 (≈ 1250 µM) |  | 7 | 6 | 0 |  | 500 (≈ 1250 µM) | 6 |  | 0 | 0 |  | 0 | 0 | 250 (≈ 626 µM) | MIC (Aspergillus fumigatus [3]): inactive; MIC (Salmonella paratyphi [7]; [17]): inactive; MIC (Klebsiella pneumoniae [10]): inactive; MIC (Salmonella typhi [13]; [18]): inactive
4 | CC1(C)O[C@H]2O[C@@H]3COC(c4cccc(C=O)c4)O[C@@H]3[C@H]2O1 (stereo partly drawn) |  |  |  | 0 | 0 | 0 |  |  | 0 |  | 0 | 0 |  | 0 | 0 |  | MIC (Micrococcus luteus [1]): inactive; MIC (Staphylococcus aureus [2]): inactive; MIC (Aspergillus fumigatus [3]): inactive; MIC (Salmonella paratyphi [7]; [17]): inactive; MIC (Candida albicans [8]): inactive; MIC (Klebsiella pneumoniae [10]): inactive; MIC (Salmonella typhi [13]; [18]): inactive; MIC (Streptococcus mutans [16]): inactive
5 | CC1(C)O[C@H]2O[C@@H]3COB(c4cccc(/N=C/c5ccc6ccccc6c5O)c4)O[C@@H]3[C@H]2O1 | 62.5 (≈ 140 µM) | 125 (≈ 281 µM) | 31.2 (≈ 70.2 µM) | 13 | 17 | 13 | 125 (≈ 281 µM) | 62.5 (≈ 140 µM) | 19 | 62.5 (≈ 140 µM) | 19 | 17 | 62.5 (≈ 140 µM) | 23 | 33 | 125 (≈ 281 µM) | 
6 | Cc1ccc(/N=C/c2cccc(B(O)O)c2)cc1 | 500 (≈ 2090 µM) | 500 (≈ 2090 µM) | 500 (≈ 2090 µM) | 8 | 9 | 0 | 500 (≈ 2090 µM) | 500 (≈ 2090 µM) | 0 | 500 (≈ 2090 µM) | 0 | 0 | 500 (≈ 2090 µM) | 8 | 0 | 250 (≈ 1050 µM) | 
7 | CC1(C)O[C@H]2O[C@@H]3COB(c4ccccc4F)O[C@@H]3[C@H]2O1 | 250 (≈ 850 µM) | 125 (≈ 425 µM) | 500 (≈ 1700 µM) | 11 | 12 | 9 | 125 (≈ 425 µM) | 500 (≈ 1700 µM) | 11 | 250 (≈ 850 µM) | 12 | 8 | 250 (≈ 850 µM) | 11 | 9 | 125 (≈ 425 µM) | 
8 | CC1(C)O[C@H]2O[C@@H]3COB(c4cccc(/C=N/c5ccc(F)cc5)c4)O[C@@H]3[C@H]2O1 | 125 (≈ 315 µM) | 31.2 (≈ 78.7 µM) | 250 (≈ 629 µM) | 20 | 18 | 21 | 31.2 (≈ 78.7 µM) | 62.5 (≈ 157 µM) | 19 | 62.5 (≈ 157 µM) | 16 | 11 | 31.2 (≈ 78.7 µM) | 24 | 0 | 62.5 (≈ 157 µM) | 

Source: ChEMBL document CHEMBL3822364, “Synthesis, characterization and antimicrobial activity of novel Schiff base tethered boronate esters of 1,2-O-isopropylidene-α-d-xylofuranose” (2016)
